Results from PubChem BioAssay AID2060341 (Molecular Pharmacology Branch, DTP, NCI, 2025).
pIC50: −log10 of the molar value.

System: 327498-153-R-J2-PDC multicell spheroid viability
Assay: Anticancer human tumor 327498-153-R-J2-PDC patient-derived uterine carcinosarcoma cell line growth inhibition [IpAb]
Conditions: for pIC50: curve of first compound; for viability, T/C: stronger effect = lower value
Outline: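 Spheroids of 60% malignant cells, 25% HUVEC and 15% MSC were exposed to targeted agents combined with ipatasertib or abemaciclib. Doses started at or near clinical Cmax (10 microM when unknown) and fell in half-log steps.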
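Note: spheroids exposed to agents for 7 days.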
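Throughout, for viability, T/C: 100% = DMSO vehicle control viability.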

Cn1cnc2c(F)c(Nc3ccc(Br)cc3Cl)c(C(=O)NOCCO)cc21 + CCN1CCN(Cc2ccc(Nc3ncc(F)c(-c4cc(F)c5nc(C)n(C(C)C)c5c4)n3)nc2)CC1
pIC50 (second compound 0.01 µM): 6.72
pIC50 (second compound 0.0316 µM): 7.71
pIC50 (second compound 0.1 µM): > 8.02
pIC50 (second compound 0.316 µM): > 8.02
pIC50 (second compound 1 µM): > 8.02
viability, T/C (second compound 0.01 µM, first compound 0.00949 µM): 79.8%
viability, T/C (second compound 0.01 µM, first compound 0.03 µM): 64.2%
viability, T/C (second compound 0.01 µM, first compound 0.0949 µM): 53.6%
viability, T/C (second compound 0.01 µM, first compound 0.3 µM): 48.5%
viability, T/C (second compound 0.01 µM, first compound 0.949 µM): 38.1%
viability, T/C (second compound 0.01 µM, first compound 3 µM): 24.4%
viability, T/C (second compound 0.0316 µM, first compound 0.00949 µM): 54.8%
viability, T/C (second compound 0.0316 µM, first compound 0.03 µM): 46.3%
viability, T/C (second compound 0.0316 µM, first compound 0.0949 µM): 40.3%
viability, T/C (second compound 0.0316 µM, first compound 0.3 µM): 39%
viability, T/C (second compound 0.0316 µM, first compound 0.949 µM): 31.6%
viability, T/C (second compound 0.0316 µM, first compound 3 µM): 22%
viability, T/C (second compound 0.1 µM, first compound 0.00949 µM): 48.9%
viability, T/C (second compound 0.1 µM, first compound 0.03 µM): 42.7%
viability, T/C (second compound 0.1 µM, first compound 0.0949 µM): 39.5%
viability, T/C (second compound 0.1 µM, first compound 0.3 µM): 33.9%
viability, T/C (second compound 0.1 µM, first compound 0.949 µM): 28.5%
viability, T/C (second compound 0.1 µM, first compound 3 µM): 20.9%
viability, T/C (second compound 0.316 µM, first compound 0.00949 µM): 42.9%
viability, T/C (second compound 0.316 µM, first compound 0.03 µM): 41.7%
viability, T/C (second compound 0.316 µM, first compound 0.0949 µM): 35.9%
viability, T/C (second compound 0.316 µM, first compound 0.3 µM): 33%
viability, T/C (second compound 0.316 µM, first compound 0.949 µM): 24.6%
viability, T/C (second compound 0.316 µM, first compound 3 µM): 20.3%
viability, T/C (second compound 1 µM, first compound 0.00949 µM): 45.3%
viability, T/C (second compound 1 µM, first compound 0.03 µM): 43%
viability, T/C (second compound 1 µM, first compound 0.0949 µM): 36.5%
viability, T/C (second compound 1 µM, first compound 0.3 µM): 29.4%
viability, T/C (second compound 1 µM, first compound 0.949 µM): 26.3%
viability, T/C (second compound 1 µM, first compound 3 µM): 17.8%

CCCS(=O)(=O)Nc1ccc(F)c(C(=O)c2c[nH]c3ncc(-c4ccc(Cl)cc4)cc23)c1F + CC(C)NCC(C(=O)N1CCN(c2ncnc3c2C(C)CC3O)CC1)c1ccc(Cl)cc1
pIC50 (second compound 0.1 µM): < 5.00
pIC50 (second compound 0.316 µM): < 5.00
pIC50 (second compound 1 µM): < 5.00
pIC50 (second compound 3.16 µM): 5.63
pIC50 (second compound 10 µM): > 7.50
viability, T/C (second compound 0.1 µM, first compound 0.0316 µM): 94.3%
viability, T/C (second compound 0.1 µM, first compound 0.1 µM): 101%
viability, T/C (second compound 0.1 µM, first compound 0.316 µM): 96.7%
viability, T/C (second compound 0.1 µM, first compound 1 µM): 101%
viability, T/C (second compound 0.1 µM, first compound 3.16 µM): 101%
viability, T/C (second compound 0.1 µM, first compound 10 µM): 86.7%
viability, T/C (second compound 0.316 µM, first compound 0.0316 µM): 72.2%
viability, T/C (second compound 0.316 µM, first compound 0.1 µM): 74%
viability, T/C (second compound 0.316 µM, first compound 0.316 µM): 80.6%
viability, T/C (second compound 0.316 µM, first compound 1 µM): 81.1%
viability, T/C (second compound 0.316 µM, first compound 3.16 µM): 85.3%
viability, T/C (second compound 0.316 µM, first compound 10 µM): 63%
viability, T/C (second compound 1 µM, first compound 0.0316 µM): 57.5%
viability, T/C (second compound 1 µM, first compound 0.1 µM): 58.2%
viability, T/C (second compound 1 µM, first compound 0.316 µM): 62.9%
viability, T/C (second compound 1 µM, first compound 1 µM): 76.3%
viability, T/C (second compound 1 µM, first compound 3.16 µM): 74.1%
viability, T/C (second compound 1 µM, first compound 10 µM): 49%
viability, T/C (second compound 3.16 µM, first compound 0.0316 µM): 49.6%
viability, T/C (second compound 3.16 µM, first compound 0.1 µM): 50.3%
viability, T/C (second compound 3.16 µM, first compound 0.316 µM): 52%
viability, T/C (second compound 3.16 µM, first compound 1 µM): 56%
viability, T/C (second compound 3.16 µM, first compound 3.16 µM): 54.4%
viability, T/C (second compound 3.16 µM, first compound 10 µM): 42.1%
viability, T/C (second compound 10 µM, first compound 0.0316 µM): 40.1%
viability, T/C (second compound 10 µM, first compound 0.1 µM): 41.8%
viability, T/C (second compound 10 µM, first compound 0.316 µM): 44.2%
viability, T/C (second compound 10 µM, first compound 1 µM): 40.7%
viability, T/C (second compound 10 µM, first compound 3.16 µM): 41.2%
viability, T/C (second compound 10 µM, first compound 10 µM): 23.4%
